# Data taken from PMC6576746, “Rational discovery of dual-indication multi-target PDE/Kinase inhibitor for precision anti-cancer therapy using structural systems pharmacology” (PLoS Computational Biology, 2019).
# Assays:
# Test in all cases: biochemical
# Parameters in all cases: DiscoverX KinomeScan competition binding assay across human kinases; per cent of control at 10 and 100 uM
# ITK = ITK (Homo sapiens, UniProt Q08881); settings: competition binding, % of control; read-out: Percent Control (100 uM Levosimendan)
# How it was run: (§1)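 KinomeScan competition binding was run across a human kinase panel at 10 μM and 100 μM levosimendan. Results are %control = (test − positive control)/(negative control − positive control) × 100.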
# MAK = MAK (Homo sapiens, UniProt P20794); settings: competition binding, % of control; read-out: Percent Control (100 uM Levosimendan)
# How it was run: as §1
# MEK3 = target: T1, MEK3 (Homo sapiens, UniProt P46734); settings: competition binding, % of control; read-out: Percent Control (100 uM Levosimendan)
# T1 construct: gene MAP2K3
# How it was run: as §1
# [1] = target: T2, ABL1(F317I)-phosphorylated (Homo sapiens, UniProt P00519, F317I); settings: competition binding, % of control; read-out: Percent Control (100 uM Levosimendan)
# T2 construct: phosphorylated
# How it was run: as §1
# PIP5K2B = target: T3, PIP5K2B (Homo sapiens, UniProt P78356); settings: competition binding, % of control
# T3 construct: gene PIP4K2B
# How it was run: as §1
# TAOK2 = TAOK2 (Homo sapiens, UniProt Q9UL54); settings: competition binding, % of control; read-out: Percent Control (100 uM Levosimendan)
# How it was run: as §1
# NEK3 = NEK3 (Homo sapiens, UniProt P51956); settings: competition binding, % of control; read-out: Percent Control (100 uM Levosimendan)
# How it was run: as §1
# CSF1R-autoinhibited = CSF1R-autoinhibited (Homo sapiens, UniProt P07333); settings: competition binding, % of control; read-out: Percent Control (100 uM Levosimendan)
# How it was run: as §1
# NLK = NLK (Homo sapiens, UniProt Q9UBE8); settings: competition binding, % of control; read-out: Percent Control (100 uM Levosimendan)
# How it was run: as §1
# AURKC = AURKC (Homo sapiens, UniProt Q9UQB9); settings: competition binding, % of control; read-out: Percent Control (100 uM Levosimendan)
# How it was run: as §1
# MLCK = target: T4, MLCK (Homo sapiens, UniProt Q32MK0); settings: competition binding, % of control; read-out: Percent Control (100 uM Levosimendan)
# T4 construct: gene MYLK3
# How it was run: as §1
# BMX = BMX (Homo sapiens, UniProt P51813); settings: competition binding, % of control; read-out: Percent Control (100 uM Levosimendan)
# How it was run: as §1
# CSNK2A1 = CSNK2A1 (Homo sapiens, UniProt P68400); settings: competition binding, % of control; read-out: Percent Control (100 uM Levosimendan)
# How it was run: as §1
# BRK = target: T5, BRK (Homo sapiens, UniProt Q13882); settings: competition binding, % of control; read-out: Percent Control (100 uM Levosimendan)
# T5 construct: gene PTK6
# How it was run: as §1
# [2] = target: T6, ABL1(F317L)-phosphorylated (Homo sapiens, UniProt P00519, F317L); settings: competition binding, % of control; read-out: Percent Control (100 uM Levosimendan)
# T6 construct: phosphorylated
# How it was run: as §1
# HIPK4 = HIPK4 (Homo sapiens, UniProt Q8NE63); settings: competition binding, % of control; read-out: Percent Control (100 uM Levosimendan)
# How it was run: as §1
# SRPK3 = SRPK3 (Homo sapiens, UniProt Q9UPE1); settings: competition binding, % of control; read-out: Percent Control (100 uM Levosimendan)
# How it was run: as §1
# RIOK1 = RIOK1 (Homo sapiens, UniProt Q9BRS2); settings: competition binding, % of control
# How it was run: as §1
# p38-gamma = target: T7, p38-gamma (Homo sapiens, UniProt P53778); settings: competition binding, % of control
# T7 construct: gene MAPK12
# How it was run: as §1
# [3] = read-out: Percent Control (10 uM Levosimendan)
# [4] = read-out: Percent Control (100 uM Levosimendan)
# T3 sequence (P78356 whole entry): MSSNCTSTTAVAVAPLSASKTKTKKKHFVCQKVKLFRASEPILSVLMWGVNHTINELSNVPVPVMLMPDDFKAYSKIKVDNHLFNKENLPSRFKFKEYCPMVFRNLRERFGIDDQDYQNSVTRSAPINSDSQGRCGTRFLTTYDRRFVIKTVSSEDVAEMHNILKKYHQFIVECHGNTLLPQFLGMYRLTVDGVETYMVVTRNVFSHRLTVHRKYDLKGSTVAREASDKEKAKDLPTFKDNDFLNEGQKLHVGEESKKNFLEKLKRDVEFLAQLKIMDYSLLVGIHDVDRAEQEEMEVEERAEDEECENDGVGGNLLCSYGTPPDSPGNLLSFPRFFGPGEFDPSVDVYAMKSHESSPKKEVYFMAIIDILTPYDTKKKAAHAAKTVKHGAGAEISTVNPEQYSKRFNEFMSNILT
# T7 sequence (P53778 whole entry): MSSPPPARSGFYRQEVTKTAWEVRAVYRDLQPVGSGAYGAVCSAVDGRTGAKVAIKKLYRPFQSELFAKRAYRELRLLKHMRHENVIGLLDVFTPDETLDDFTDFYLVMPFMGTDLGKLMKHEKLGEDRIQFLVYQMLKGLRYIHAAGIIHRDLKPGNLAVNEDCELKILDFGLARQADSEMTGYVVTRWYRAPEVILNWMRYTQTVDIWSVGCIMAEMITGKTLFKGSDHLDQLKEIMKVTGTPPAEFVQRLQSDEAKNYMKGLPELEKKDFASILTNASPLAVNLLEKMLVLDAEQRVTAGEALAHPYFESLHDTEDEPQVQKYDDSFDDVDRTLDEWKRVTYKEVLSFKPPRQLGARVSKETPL
# Sequence of RIOK1 (Q9BRS2 whole entry): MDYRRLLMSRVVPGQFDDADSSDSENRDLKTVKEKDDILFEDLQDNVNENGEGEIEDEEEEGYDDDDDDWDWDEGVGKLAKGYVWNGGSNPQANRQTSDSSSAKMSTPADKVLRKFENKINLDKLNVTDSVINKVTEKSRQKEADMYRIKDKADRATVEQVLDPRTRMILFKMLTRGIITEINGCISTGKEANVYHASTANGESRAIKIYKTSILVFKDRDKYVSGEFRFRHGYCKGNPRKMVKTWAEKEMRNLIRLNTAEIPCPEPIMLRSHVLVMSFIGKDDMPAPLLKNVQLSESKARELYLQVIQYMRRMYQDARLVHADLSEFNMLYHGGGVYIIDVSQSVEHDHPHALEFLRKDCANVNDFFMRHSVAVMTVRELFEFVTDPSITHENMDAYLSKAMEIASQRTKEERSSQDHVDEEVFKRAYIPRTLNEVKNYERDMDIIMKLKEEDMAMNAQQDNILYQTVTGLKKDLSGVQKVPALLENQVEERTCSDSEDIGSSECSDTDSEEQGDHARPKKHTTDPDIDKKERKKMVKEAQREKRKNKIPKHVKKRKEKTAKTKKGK
# Sequence of BMX (P51813 whole entry): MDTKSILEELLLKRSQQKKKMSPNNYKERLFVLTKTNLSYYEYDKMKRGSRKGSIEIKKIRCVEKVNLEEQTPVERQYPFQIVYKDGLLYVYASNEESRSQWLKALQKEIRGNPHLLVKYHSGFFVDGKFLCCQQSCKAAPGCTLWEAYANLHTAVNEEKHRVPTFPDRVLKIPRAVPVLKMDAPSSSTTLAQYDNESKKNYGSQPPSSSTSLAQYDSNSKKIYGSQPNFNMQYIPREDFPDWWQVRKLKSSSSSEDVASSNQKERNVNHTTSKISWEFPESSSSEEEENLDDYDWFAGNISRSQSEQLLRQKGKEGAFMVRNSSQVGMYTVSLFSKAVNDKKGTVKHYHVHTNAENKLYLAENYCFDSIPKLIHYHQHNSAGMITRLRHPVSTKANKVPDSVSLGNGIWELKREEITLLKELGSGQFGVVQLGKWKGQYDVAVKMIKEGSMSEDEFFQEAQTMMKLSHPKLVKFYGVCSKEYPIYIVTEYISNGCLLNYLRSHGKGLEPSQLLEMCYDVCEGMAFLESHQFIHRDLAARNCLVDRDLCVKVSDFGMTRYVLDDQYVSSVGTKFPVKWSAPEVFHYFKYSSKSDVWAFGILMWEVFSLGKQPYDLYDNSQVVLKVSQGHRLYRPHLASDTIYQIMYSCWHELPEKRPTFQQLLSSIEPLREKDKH
# Sequence of HIPK4 (Q8NE63 whole entry): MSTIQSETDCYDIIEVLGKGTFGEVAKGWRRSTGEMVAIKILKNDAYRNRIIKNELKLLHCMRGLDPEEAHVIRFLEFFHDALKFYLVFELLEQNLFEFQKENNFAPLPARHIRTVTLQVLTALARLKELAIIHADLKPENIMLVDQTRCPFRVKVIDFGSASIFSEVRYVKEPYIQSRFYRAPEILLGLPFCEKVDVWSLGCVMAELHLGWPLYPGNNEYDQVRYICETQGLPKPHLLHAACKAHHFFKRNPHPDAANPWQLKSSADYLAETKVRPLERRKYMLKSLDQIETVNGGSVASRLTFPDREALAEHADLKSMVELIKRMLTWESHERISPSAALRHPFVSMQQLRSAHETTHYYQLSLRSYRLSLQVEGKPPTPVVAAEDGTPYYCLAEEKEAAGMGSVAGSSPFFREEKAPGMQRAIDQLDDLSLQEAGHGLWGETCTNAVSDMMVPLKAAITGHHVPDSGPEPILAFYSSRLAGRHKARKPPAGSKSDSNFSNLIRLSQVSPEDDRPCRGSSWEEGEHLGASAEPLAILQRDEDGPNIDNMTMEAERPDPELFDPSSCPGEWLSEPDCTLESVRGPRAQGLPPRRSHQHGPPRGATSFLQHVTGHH
# Sequence of TAOK2 (Q9UL54 whole entry): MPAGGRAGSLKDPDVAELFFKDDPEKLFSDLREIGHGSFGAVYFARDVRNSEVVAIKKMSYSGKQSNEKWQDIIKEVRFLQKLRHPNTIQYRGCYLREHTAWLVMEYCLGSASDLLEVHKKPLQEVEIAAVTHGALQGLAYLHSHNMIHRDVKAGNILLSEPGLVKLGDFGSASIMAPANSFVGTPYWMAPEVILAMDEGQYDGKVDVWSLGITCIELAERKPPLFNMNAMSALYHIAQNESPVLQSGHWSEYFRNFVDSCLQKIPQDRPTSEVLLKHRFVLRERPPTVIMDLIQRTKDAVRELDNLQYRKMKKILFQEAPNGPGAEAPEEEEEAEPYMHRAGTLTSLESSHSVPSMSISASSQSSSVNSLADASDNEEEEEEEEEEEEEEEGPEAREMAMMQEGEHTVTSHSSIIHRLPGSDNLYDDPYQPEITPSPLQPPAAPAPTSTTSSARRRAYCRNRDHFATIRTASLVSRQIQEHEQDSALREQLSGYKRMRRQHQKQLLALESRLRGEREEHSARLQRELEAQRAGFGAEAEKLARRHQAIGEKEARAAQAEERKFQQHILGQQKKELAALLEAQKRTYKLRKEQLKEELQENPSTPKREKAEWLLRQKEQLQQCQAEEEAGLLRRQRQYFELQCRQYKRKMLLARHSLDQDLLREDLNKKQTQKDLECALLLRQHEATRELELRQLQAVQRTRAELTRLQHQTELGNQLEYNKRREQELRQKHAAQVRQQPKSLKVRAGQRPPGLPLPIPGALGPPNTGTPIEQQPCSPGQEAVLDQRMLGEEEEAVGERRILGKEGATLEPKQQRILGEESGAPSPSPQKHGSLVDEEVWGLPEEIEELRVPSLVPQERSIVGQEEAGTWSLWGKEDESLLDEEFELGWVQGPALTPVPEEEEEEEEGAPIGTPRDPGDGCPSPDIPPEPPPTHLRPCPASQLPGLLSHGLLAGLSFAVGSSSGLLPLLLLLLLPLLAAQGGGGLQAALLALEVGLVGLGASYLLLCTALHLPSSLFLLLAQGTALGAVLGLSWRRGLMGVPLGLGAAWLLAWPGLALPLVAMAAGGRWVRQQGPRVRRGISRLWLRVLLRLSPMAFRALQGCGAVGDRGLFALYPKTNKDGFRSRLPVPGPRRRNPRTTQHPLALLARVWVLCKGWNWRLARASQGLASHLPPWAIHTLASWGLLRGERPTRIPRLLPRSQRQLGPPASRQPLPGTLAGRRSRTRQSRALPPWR
# Sequence of MAK (P20794 whole entry): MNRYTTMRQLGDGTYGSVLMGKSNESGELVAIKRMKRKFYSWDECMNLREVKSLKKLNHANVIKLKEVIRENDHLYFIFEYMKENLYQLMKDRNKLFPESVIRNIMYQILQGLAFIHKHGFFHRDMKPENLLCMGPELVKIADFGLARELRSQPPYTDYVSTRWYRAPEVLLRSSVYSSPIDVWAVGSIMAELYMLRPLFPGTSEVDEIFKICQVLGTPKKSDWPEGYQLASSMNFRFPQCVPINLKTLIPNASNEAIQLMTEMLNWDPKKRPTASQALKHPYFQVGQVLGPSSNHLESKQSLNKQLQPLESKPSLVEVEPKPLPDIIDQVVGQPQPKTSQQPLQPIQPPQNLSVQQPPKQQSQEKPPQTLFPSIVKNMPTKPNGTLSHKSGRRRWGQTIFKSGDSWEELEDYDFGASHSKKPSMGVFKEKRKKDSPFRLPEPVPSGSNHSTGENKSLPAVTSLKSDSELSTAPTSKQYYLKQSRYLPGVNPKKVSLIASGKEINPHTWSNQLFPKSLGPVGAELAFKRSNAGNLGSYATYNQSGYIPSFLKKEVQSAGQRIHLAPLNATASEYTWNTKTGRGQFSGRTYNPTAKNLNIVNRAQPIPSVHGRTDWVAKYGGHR
# Sequence of CSNK2A1 (P68400 whole entry): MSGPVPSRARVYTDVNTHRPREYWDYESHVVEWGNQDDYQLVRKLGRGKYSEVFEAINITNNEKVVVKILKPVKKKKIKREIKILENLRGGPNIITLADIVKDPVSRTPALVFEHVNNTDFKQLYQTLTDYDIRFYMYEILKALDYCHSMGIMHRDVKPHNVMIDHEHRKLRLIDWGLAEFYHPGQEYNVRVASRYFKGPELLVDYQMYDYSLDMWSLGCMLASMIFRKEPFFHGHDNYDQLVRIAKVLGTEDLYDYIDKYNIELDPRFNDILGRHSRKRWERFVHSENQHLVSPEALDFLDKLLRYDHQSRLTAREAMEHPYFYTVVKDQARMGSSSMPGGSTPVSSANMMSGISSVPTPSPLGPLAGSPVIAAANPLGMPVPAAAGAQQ
structure (smiles),measurement,setting,value
C[C@@H]1CC(=O)NN=C1c1ccc(NN=C(C#N)C#N)cc1 [levosimendan],remaining binding at 100 µM,ITK,86%
same,remaining binding at 100 µM,MAK,100%
same,remaining binding at 100 µM,MEK3,57%
same,remaining binding at 100 µM,[1],100%
same,remaining binding at 10 µM,PIP5K2B; [3],92%
same,remaining binding at 100 µM,PIP5K2B; [4],14%
same,remaining binding at 100 µM,TAOK2,89%
same,remaining binding at 100 µM,NEK3,78%
same,remaining binding at 100 µM,CSF1R-autoinhibited,85%
same,remaining binding at 100 µM,NLK,100%
same,remaining binding at 100 µM,AURKC,100%
same,remaining binding at 100 µM,MLCK,100%
same,remaining binding at 100 µM,BMX,77%
same,remaining binding at 100 µM,CSNK2A1,100%
same,remaining binding at 100 µM,BRK,85%
same,remaining binding at 100 µM,[2],59%
same,remaining binding at 100 µM,HIPK4,84%
same,remaining binding at 100 µM,SRPK3,63%
same,remaining binding at 10 µM,RIOK1; [3],15%
same,remaining binding at 100 µM,RIOK1; [4],0%
same,remaining binding at 10 µM,p38-gamma; [3],92%
same,remaining binding at 100 µM,p38-gamma; [4],52%
